# Data from patent US20250375473A1, “Pharmaceutical composition for treating cancer comprising an ionic compound having metal ion binding thereto” (METAFINES.CO.LTD., priority 2018, published 2025).
# Where “and” joins values, the source holds several entries; their conditions need not be identical. Identical values can stand only once.
# Key:
# [1] = test system: liver cancer cell line (HepG2); assay: MTT assay, 48 h, HepG2; conditions: 48 h, MTT
# Procedure: (§6) 7 cell lines were aliquoted to each well of a 96-well plate at 5×10^3 cells, and cultured for 24 hours. […] The drug-treated cells were cultured in an incubator (37° C., 5% CO2) for 48 hours, and 5 mg/ ? MTT reagent 10 ? was added to each well and cultured for additional 4 hours. Then, culture medium was removed and DMSO 100 ? was treated to dissolve the MTT stained precipitate, and absorbance was measured at 540 nm with a microplate reader.
# [2] = test system: ovarian cancer cell line (A2780); assay: MTT assay, 48 h, A2780; conditions: 48 h, MTT
# Procedure: as §6
# [3] = test system: human colorectal cancer cell lines (HCT-116 and HT-29); assay: Change in ascorbic acid level in cancer cells; type: cell-based; conditions: 1 mM; 24 h; lysate; vs untreated control
# Procedure: After culture, the cultured cancer cells were pulverized with a homogenizer and centrifuged, and the concentration of ascorbic acid contained in the lysate was measured using an ascorbic acid assay kit (Biovision, San Francisco, CA).
# [4] = test system: brain cancer cell line (U87MG); assay: MTT assay, 72 h, brain cancer cell line; type: cell-based; conditions: U87MG, MTT
# Procedure: (§1) The calcium salts of Examples 1 to 3 were added to each well by concentration (20 mg/ ? , mg/ ? , 0.8 mg/ ? , 0.16 mg/ ? , 0.032 mg/ ? , 0.0064 mg/ ? , 0.00128 mg/ ? , 0.000256 mg/ ? ). […] The supernatant was removed using a centrifuge, DMSO 200 ? was added to each well to dissolve the MTT stained precipitate, and OD540 value was measured at 540 nm with an ELISA reader.
# [5] = test system: colorectal cancer cell line (DLD-1); assay: MTT assay, 72 h, colorectal cancer cell line; type: cell-based; conditions: DLD-1; 72 h; MTT
# Procedure: as §1
# [6] = test system: colorectal cancer cell line (HCT-116); assay: MTT assay, 48 h, HCT-116; conditions: 48 h; MTT; value in brackets
# Procedure: as §6
# [7] = test system: pancreatic cancer cell line (PANC-1); assay: MTT assay, 48 h, PANC-1; conditions: 48 h, MTT
# Procedure: as §6
# PDH enzyme = assay: Time-dependent PDH enzyme activity in cancer cells; type: cell-based; conditions: DLD-1 and HT-29 cancer cells; FIG. 29
# [8] = Maintenance of hetero salt form in aqueous solution (MS); type: physicochemical; conditions: added to water
# DLD-1 = assay: Hetero salts vs homo salts, cell viability and cytotoxicity, DLD-1; type: cell-based; conditions: DLD-1; 10 mM
# Procedure: (§2) Hetero salts prepared according to the examples (ASCA101, ASCA201) and homo salts were applied to colorectal cancer cell lines, and their effects on cell viability and cytotoxicity were evaluated.
# (§3) Herein, “Na-ASC” refers to sodium ascorbate, “Na-DCA” refers to sodium dichloroacetate, “Ca (ASC) 2” refers to calcium ascorbate, “Ca (DCA) 2” refers to calcium dichloroacetate, and “Ca (LA) 2” refers to calcium lactate.
# HT-29 cell = assay: IC50 of each drug alone, 48 h, HT-29; type: cell-based, human
# Procedure: (§4) Then, various concentration of Example or chemical anticancer drugs (Fluorouracil (5-FU), SN-38, Paclitaxel (PTX)) were treated thereto alone.
# [9] = test system: A549/LUC cells implanted into the lung; assay: Lung cancer mouse model (A549/LUC orthotopic model); type: in vivo; conditions: 100 mg/kg IV once a day (Qdx4) for 5 weeks; vs control
# Procedure: (§5) In order to construct an animal model with orthotopic xenotransplantation (orthotopic xenograft) and general animal model (orthotopic xenograft), A549/LUC cells and DLD-1 cells were subcultured, and then the cancer cells were injected into the lung and colon of the mice, respectively.
# Since the model was directly injected with cancer cells into the mouse organ, the growth of cancer was not confirmed by observation of the mouse appearance. Therefore, in the animal model to which A549/LUC cells were injected, D-Luciferin was injected intraperitoneally every 7 days to determine the growth saturation of cancer by luminescence imaging measurement using IVIS spectrum imaging system (Xenogen) device. On the other hand, in the animal model to which DLD-1 cells were injected, after 7 days, the experimental subjects were sacrificed to determine the growth saturation of cancer. […]
# The calcium salts of Examples 1 to 3 were administered to the same mouse model constructed in Test Example 5-1 (A549/LUC orthotopic model), respectively. […] Further, in order to quantify each imaging result more accurately, in vivo images were obtained by measuring ROI (Region of Interest), which is a program of IVIS spectrum (Xenogen), and the results are shown in FIG. 21.
# [10] = ASCA101 in beagle dog plasma after intravenous administration (LC-MS/MS); type: in vivo
# [11] = test system: colorectal cancer cell line (HT-29); assay: MTT assay, 48 h, HT-29; conditions: 48 h, MTT
# Procedure: as §6
# [12] = test system: poly (ADP-ribose) polymerase 1 (PARP-1); assay: Western blot, PARP-1 expression in HCT-116; type: cell-based, human; conditions: 24 h
# Procedure: The cultured cancer cells were pulverized with a homogenizer and centrifuged, and the expression levels of poly (ADP-ribose) polymerase 1 (PARP-1), β-catenin, VEGF and β-actin proteins contained in the lysate were measured using Western blot.
# HCT-116 cell [13] = assay: Co-treatment with chemical anticancer drug, growth inhibition and combinational index; conditions: 48 h, co-treated with Paclitaxel, PTX (μM) in c0 and Example 1 (μM) in c1 of the row
# Text: As the co-delivery effect, the synergistic effect was CI≤0.85, the additive effect was 0.85<CI≤1.15, and the antagonistic effect was CI>1.15.
# [14] = ASCA101 in rat plasma after intravenous administration (LC-MS/MS); type: in vivo; conditions: 0.083 hours after intravenous administration
# [15] = test system: DLD-1 cells transplanted into the colon; assay: Colorectal cancer mouse model (DLD-1 orthotopic model); type: in vivo; conditions: 100 mg/kg IV once a day (Qdx4) for 1 week; dissected after 1 week; vs control
# Procedure: as §5
# Since the model was directly injected with cancer cells into the mouse organ, the growth of cancer was not confirmed by observation of the mouse appearance. Therefore, in the animal model to which A549/LUC cells were injected, D-Luciferin was injected intraperitoneally every 7 days to determine the growth saturation of cancer by luminescence imaging measurement using IVIS spectrum imaging system (Xenogen) device. On the other hand, in the animal model to which DLD-1 cells were injected, after 7 days, the experimental subjects were sacrificed to determine the growth saturation of cancer.
# In other words, general DLD-1 cells were transplanted into the colon to construct a colorectal cancer mouse model (DLD-1 orthotopic model), and orthotopic xenotransplantation was conducted to the lung to construct a lung cancer mouse model (A549/LUC orthotopic model).
# Further, weight of cancer tissue was measured to confirm the anticancer efficacy of the inventive substance in vivo and the results are shown in FIG. 19B.
# [16] = test system: breast cancer cell line (MDA-MB-231); assay: MTT assay, 72 h, breast cancer cell line; type: cell-based; conditions: MDA-MB-231; 72 h; MTT
# Procedure: as §1
# HCT-116 cell [17] = assay: IC50 of each drug alone, 48 h, HCT-116; type: cell-based, human; conditions: read-out: IC50 value, HCT-116 cell
# Procedure: as §4
# [18] = test system: stomach cancer cell line (SNU-638); assay: MTT assay, 48 h, SNU-638; conditions: 48 h, MTT
# Procedure: as §6
# [19] = test system: lung cancer cell line (A-549); assay: MTT assay, 48 h, A549; conditions: 48 h, MTT
# Procedure: as §6
# DLD-1 cell = assay: IC50 of each drug alone, 48 h, DLD-1; type: cell-based
# Procedure: as §4
# SW480 = assay: Hetero salts vs homo salts, cell viability and cytotoxicity, SW480; type: cell-based; conditions: SW480; 5 mM
# Procedure: as §2, §3
# [20] = GLP toxicity studies (NOAEL), intravenous and oral; type: in vivo
# Procedure: In detail, the ionic compound is administered in a dose ranging from 1.61 mg/kg to 64.86 mg/kg based on body weight of the subject. Reflecting the results of actual nonclinical efficacy, toxicity and clinical phase 1 PK/PD (pharmacokinetics/pharmacodynamics) studies, the clinically effective doses are expected to be in the HED (Human Equivalent Dose) ranges 1.61 mg/kg for intravenous administration and 7.22 mg/kg for oral administration-up to a maximum of 32.43 mg/kg for intravenous administration and 64.86 mg/kg for oral administration.
structure (smiles),measurement,setting,value
"O=C([O-])C(Cl)Cl.O=C1O[C@H]([C@@H](O)CO)C([O-])=C1O.[Ca+2] [Example 1, calcium salts of dichloroacetic acid and ascorbic acid]",IC50 of HepG2 Liver cancer (mg/ml),[1]; value in brackets,(0.72) mg/ml
same,IC50,[1]; read-out: IC50 mM of HepG2 Liver cancer,2.1 mM
same,IC50 of A2780 Ovarian cancer (mg/ml),[2]; value in brackets,(0.06) mg/ml
same,IC50,[2]; read-out: IC50 mM of A2780 Ovarian cancer,0.17 mM
same,ascorbic acid concentration in cancer cells,[3],increased
same,IC50 of Brain cancer cell line,[4],500 µg/mL
same,IC50 of Colorectal cancer cell line,[5],70 µg/mL
same,IC50 of HCT-116 Colorectal cancer cell line (mg/ml),[6],(0.12) mg/ml
same,IC50 of PANC-1 Pancreatic cancer (mg/ml),[7]; value in brackets,(0.14) mg/ml
same,IC50,[7]; read-out: IC50 mM of PANC-1 Pancreatic cancer,0.42 mM
same,time-dependent PDH activity,PDH enzyme,"greater increase in PDH activity during the first 6 hours, with the activity remaining relatively stable beyond 6 hours"
same,retention of hetero salt structure in aqueous solution (MS peaks),[8],can retain its hetero salt structure in aqueous solution
same,"cell viability, DLD-1 (10 mM)",DLD-1,11.43
same,IC50,HT-29 cell,1330 µM
same,"anticancer efficacy and metastasis (luminescence imaging, ROI)",[9],the growth and metastasis of cancer tissues was not shown at all
same,ASCA101 concentration in beagle dog plasma,[10]; 0.083 hours after intravenous administration,26.835 µg/mL
same,maintenance of hetero salt form in plasma / liquid medium,[10]; plasma of rats and beagles after intravenous administration,the hetero salt form was maintained in the bloodstream
same,IC50 of HT-29 Colorectal cancer cell line (mg/ml),[11]; value in brackets,(0.29) mg/ml
same,IC50,[11]; read-out: IC50 mM of HT-29 Colorectal cancer cell line,0.83 mM
same,concentration at which expression level of full length PARP-1 was decreased the most,[12],0.18 mg/mL
same,Inhibition effect (%),HCT-116 cell [13],73.298% and 63.569%
same,ASCA101 concentration in rat plasma,[14],26.835 µg/mL
same,growth of cancer cells / weight of cancer tissue,[15],significantly suppressed growth of cancer cells
same,IC50 of Breast cancer cell line,[16],40 µg/mL
same,IC50,HCT-116 cell [17],311 µM
same,IC50 of SNU-638 Stomach cancer (mg/ml),[18]; value in brackets,(0.48) mg/ml
same,IC50,[18]; read-out: IC50 mM of SNU-638 Stomach cancer,1.4 mM
same,IC50 of A549 Lung cancer (mg/ml),[19]; value in brackets,(0.79) mg/ml
same,IC50,[19]; read-out: IC50 mM of A549 Lung cancer,2.3 mM
same,IC50,DLD-1 cell,360 µM
same,"cell viability, SW480 (5 mM)",SW480,20.72
same,"human equivalent dose (HED) from NOAEL with safety factor of 10, intravenous",[20]; intravenous route,1.61 mg/kg
same,"human equivalent dose (HED) from NOAEL with safety factor of 10, oral",[20]; oral route,7.22 mg/kg
